Experimental data reported in patent publication US20170045513A1, “METHODS OF DIAGNOSING CELIAC DISEASE USING IP-10” (ImmusanT, Inc., priority 2014, published 2017).
Non-standard residues stand in square brackets, D forms with d. pGlu = O=C1CC[C@@H](C(=O)O)N1

System: gluten-reactive T cells
Assay: 96-well plate whole blood cytokine release, IP-10 by MAGPIX multiplex bead assay
Format: cell-based, human
Settings: for Percent of maximal response to individual gluten peptides, IP-10: after oral gluten challenge; for IP-10 WB MAGPIX % max Mean: n = 10, blood after oral gluten challenge, individual peptides 5 μM (Peptide 2* of P14, Pepscan: 10 μg/mL (5.45 μM))

Substance | Percent of maximal response to individual gluten peptides, IP-10 (Subject 1, Max. 2331 pg/mL) | Percent of maximal response to individual gluten peptides, IP-10 (Subject 2, Max. 3646 pg/mL) | Percent of maximal response to individual gluten peptides, IP-10 (Subject 3, Max. 9492 pg/mL) | Percent of maximal response to individual gluten peptides, IP-10 (Subject 4, Max. 9463 pg/mL) | Percent of maximal response to individual gluten peptides, IP-10 (Subject 5, Max. 9336 pg/mL) | Percent of maximal response to individual gluten peptides, IP-10 (Subject 6, Max. 5863 pg/mL) | Percent of maximal response to individual gluten peptides, IP-10 (Subject 7, Max. 2330 pg/mL) | Percent of maximal response to individual gluten peptides, IP-10 (Subject 8, Max. 4019 pg/mL) | Percent of maximal response to individual gluten peptides, IP-10 (Subject 9, Max. 8349 pg/mL) | Percent of maximal response to individual gluten peptides, IP-10 (Subject 10, Max. 8922 pg/mL) | IP-10 WB MAGPIX % max Mean | whole blood IP-10 release relative to that stimulated by Peptide 14 (whole blood incubations after oral gluten challenge)
(pE)QPFPQPEQPFPLQPEQP-amide ([pGlu]QPFPQPEQPFPLQPEQP-NH2; SMILES CC(C)C[C@H](NC(=O)[C@@H]1CCCN1C(=O)[C@H](Cc1ccccc1)NC(=O)[C@@H]1CCCN1C(=O)[C@H](CCC(N)=O)NC(=O)[C@H](CCC(=O)O)NC(=O)[C@@H]1CCCN1C(=O)[C@H](CCC(N)=O)NC(=O)[C@@H]1CCCN1C(=O)[C@H](Cc1ccccc1)NC(=O)[C@@H]1CCCN1C(=O)[C@H](CCC(N)=O)NC(=O)[C@@H]1CCC(=O)N1)C(=O)N[C@@H](CCC(N)=O)C(=O)N1CCC[C@H]1C(=O)N[C@@H](CCC(=O)O)C(=O)N[C@@H](CCC(N)=O)C(=O)N1CCC[C@H]1C(N)=O) [Peptide 6] | 34 % of max | 21 % of max | ≥ 100 % of max | ≥ 100 % of max | 8 % of max | 0 % of max | 1 % of max | 8 % of max | ≥ 100 % of max | 56 % of max | 43 % max | 
(pE)QPFPQPELPYPYPQ-amide ([pGlu]QPFPQPELPYPYPQ-NH2; SMILES CC(C)C[C@H](NC(=O)[C@H](CCC(=O)O)NC(=O)[C@@H]1CCCN1C(=O)[C@H](CCC(N)=O)NC(=O)[C@@H]1CCCN1C(=O)[C@H](Cc1ccccc1)NC(=O)[C@@H]1CCCN1C(=O)[C@H](CCC(N)=O)NC(=O)[C@@H]1CCC(=O)N1)C(=O)N1CCC[C@H]1C(=O)N[C@@H](Cc1ccc(O)cc1)C(=O)N1CCC[C@H]1C(=O)N[C@@H](Cc1ccc(O)cc1)C(=O)N1CCC[C@H]1C(=O)N[C@@H](CCC(N)=O)C(N)=O) [Peptide 16] | 16 % of max | 45 % of max | ≥ 100 % of max | 69 % of max | 35 % of max | 4 % of max | 800 % of max | 1 % of max | 60 % of max | 11 % of max | 42 % max | 
(pE)PEQPFPEQPIPEQPQPYP-amide ([pGlu]PEQPFPEQPIPEQPQPYP-NH2; SMILES CC[C@H](C)[C@H](NC(=O)[C@@H]1CCCN1C(=O)[C@H](CCC(N)=O)NC(=O)[C@H](CCC(=O)O)NC(=O)[C@@H]1CCCN1C(=O)[C@H](Cc1ccccc1)NC(=O)[C@@H]1CCCN1C(=O)[C@H](CCC(N)=O)NC(=O)[C@H](CCC(=O)O)NC(=O)[C@@H]1CCCN1C(=O)[C@@H]1CCC(=O)N1)C(=O)N1CCC[C@H]1C(=O)N[C@@H](CCC(=O)O)C(=O)N[C@@H](CCC(N)=O)C(=O)N1CCC[C@H]1C(=O)N[C@@H](CCC(N)=O)C(=O)N1CCC[C@H]1C(=O)N[C@@H](Cc1ccc(O)cc1)C(=O)N1CCC[C@H]1C(N)=O) [Peptide 14] | 2 % of max | 31 % of max | ≥ 100 % of max | ≥ 100 % of max | 100 % of max | 100 % of max | 100 % of max | 91 % of max | ≥ 100 % of max | ≥ 100 % of max | 82 % max | 
(pE)QPYPQPELPYPQPQ-amide ([pGlu]QPYPQPELPYPQPQ-NH2; SMILES CC(C)C[C@H](NC(=O)[C@H](CCC(=O)O)NC(=O)[C@@H]1CCCN1C(=O)[C@H](CCC(N)=O)NC(=O)[C@@H]1CCCN1C(=O)[C@H](Cc1ccc(O)cc1)NC(=O)[C@@H]1CCCN1C(=O)[C@H](CCC(N)=O)NC(=O)[C@@H]1CCC(=O)N1)C(=O)N1CCC[C@H]1C(=O)N[C@@H](Cc1ccc(O)cc1)C(=O)N1CCC[C@H]1C(=O)N[C@@H](CCC(N)=O)C(=O)N1CCC[C@H]1C(=O)N[C@@H](CCC(N)=O)C(N)=O) [Peptide 15] | 4 % of max | 30 % of max | ≥ 100 % of max | 67 % of max | 33 % of max | 0 % of max | 6 % of max | 5 % of max | 69 % of max | 17 % of max | 33 % max | 
(pE)PEQPIPEQPQPYPQQ-amide ([pGlu]PEQPIPEQPQPYPQQ-NH2; SMILES CC[C@H](C)[C@H](NC(=O)[C@@H]1CCCN1C(=O)[C@H](CCC(N)=O)NC(=O)[C@H](CCC(=O)O)NC(=O)[C@@H]1CCCN1C(=O)[C@@H]1CCC(=O)N1)C(=O)N1CCC[C@H]1C(=O)N[C@@H](CCC(=O)O)C(=O)N[C@@H](CCC(N)=O)C(=O)N1CCC[C@H]1C(=O)N[C@@H](CCC(N)=O)C(=O)N1CCC[C@H]1C(=O)N[C@@H](Cc1ccc(O)cc1)C(=O)N1CCC[C@H]1C(=O)N[C@@H](CCC(N)=O)C(=O)N[C@@H](CCC(N)=O)C(N)=O) [Peptide 3] | 51 % of max | 14 % of max | ≥ 100 % of max | ≥ 100 % of max | 53 % of max | 43 % of max | 5 % of max | 100 % of max | 85 % of max | ≥ 100 % of max | 65 % max | one-quarter less
(pE)PEQPEQPFPEQPQQ-amide ([pGlu]PEQPEQPFPEQPQQ-NH2; SMILES NC(=O)CC[C@H](NC(=O)[C@H](CCC(N)=O)NC(=O)[C@@H]1CCCN1C(=O)[C@H](CCC(N)=O)NC(=O)[C@H](CCC(=O)O)NC(=O)[C@@H]1CCCN1C(=O)[C@H](Cc1ccccc1)NC(=O)[C@@H]1CCCN1C(=O)[C@H](CCC(N)=O)NC(=O)[C@H](CCC(=O)O)NC(=O)[C@@H]1CCCN1C(=O)[C@H](CCC(N)=O)NC(=O)[C@H](CCC(=O)O)NC(=O)[C@@H]1CCCN1C(=O)[C@@H]1CCC(=O)N1)C(N)=O) [Peptide 11] | 0 % of max | 0 % of max | 6 % of max | 2 % of max | 0 % of max | 0 % of max | 0 % of max | 0 % of max | 0 % of max | 0 % of max | 1 % max | 
(pE)PQPYPEQPQPFPQQ-amide ([pGlu]PQPYPEQPQPFPQQ-NH2; SMILES NC(=O)CC[C@H](NC(=O)[C@H](CCC(N)=O)NC(=O)[C@@H]1CCCN1C(=O)[C@H](Cc1ccccc1)NC(=O)[C@@H]1CCCN1C(=O)[C@H](CCC(N)=O)NC(=O)[C@@H]1CCCN1C(=O)[C@H](CCC(N)=O)NC(=O)[C@H](CCC(=O)O)NC(=O)[C@@H]1CCCN1C(=O)[C@H](Cc1ccc(O)cc1)NC(=O)[C@@H]1CCCN1C(=O)[C@H](CCC(N)=O)NC(=O)[C@@H]1CCCN1C(=O)[C@@H]1CCC(=O)N1)C(N)=O) [Peptide 8] | 0 % of max | 5 % of max | ≥ 100 % of max | ≥ 100 % of max | 45 % of max | 2 % of max | 0 % of max | 39 % of max | 31 % of max | 94 % of max | 42 % max | 
(pE)QPFPQPEQPFSQQ-amide ([pGlu]QPFPQPEQPFSQQ-NH2; SMILES NC(=O)CC[C@H](NC(=O)[C@H](CCC(N)=O)NC(=O)[C@H](CO)NC(=O)[C@H](Cc1ccccc1)NC(=O)[C@@H]1CCCN1C(=O)[C@H](CCC(N)=O)NC(=O)[C@H](CCC(=O)O)NC(=O)[C@@H]1CCCN1C(=O)[C@H](CCC(N)=O)NC(=O)[C@@H]1CCCN1C(=O)[C@H](Cc1ccccc1)NC(=O)[C@@H]1CCCN1C(=O)[C@H](CCC(N)=O)NC(=O)[C@@H]1CCC(=O)N1)C(N)=O) [Peptide 7] | 0 % of max | 7 % of max | 60 % of max | 20 % of max | 12 % of max | 0 % of max | 0 % of max | 3 % of max | 17 % of max | 3 % of max | 12 (12) % max | 
